Results taken from patent US20130096055A1, “LONG-ACTING Y2 RECEPTOR AGONISTS” (Novo Nordisk A/S, priority 2009, published 2013).
Starred links: 1 amine or outer side, 2 acyl side, 3 side chain; linkers in the order of their positions; H or OH if unused. Groups on a side chain read outwards from the residue. No end group written: not given here. *: point of attachment. C18 diacid = O=C(O)CCCCCCCCCCCCCCCCC(=O)*; γGlu = O=C(O)[C@H](CCC(=O)[*:2])N[*:1]; AEEA = NCCOCCOCC(=O)O

T1: Y1 receptor (Homo sapiens, UniProt P25929)
T1 construct: expressed in transfected cells; host or cells: ACTOne HEK-293 cells
T1 sequence (P25929 1-384): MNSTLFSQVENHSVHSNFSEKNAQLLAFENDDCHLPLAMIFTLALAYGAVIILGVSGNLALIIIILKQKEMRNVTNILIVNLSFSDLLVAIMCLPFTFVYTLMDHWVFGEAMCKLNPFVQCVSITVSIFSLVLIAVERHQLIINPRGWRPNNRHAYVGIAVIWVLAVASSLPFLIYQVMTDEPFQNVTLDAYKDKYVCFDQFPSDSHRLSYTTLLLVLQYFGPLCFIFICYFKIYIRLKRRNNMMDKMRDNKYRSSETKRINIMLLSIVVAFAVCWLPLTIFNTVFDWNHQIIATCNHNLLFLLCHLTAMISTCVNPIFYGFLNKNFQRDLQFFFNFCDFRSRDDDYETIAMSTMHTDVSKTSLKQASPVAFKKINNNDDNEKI

T2: human Y5 receptor (Homo sapiens, UniProt Q15761)
T2 construct: expressed in transfected cells
T2 sequence (Q15761 1-445): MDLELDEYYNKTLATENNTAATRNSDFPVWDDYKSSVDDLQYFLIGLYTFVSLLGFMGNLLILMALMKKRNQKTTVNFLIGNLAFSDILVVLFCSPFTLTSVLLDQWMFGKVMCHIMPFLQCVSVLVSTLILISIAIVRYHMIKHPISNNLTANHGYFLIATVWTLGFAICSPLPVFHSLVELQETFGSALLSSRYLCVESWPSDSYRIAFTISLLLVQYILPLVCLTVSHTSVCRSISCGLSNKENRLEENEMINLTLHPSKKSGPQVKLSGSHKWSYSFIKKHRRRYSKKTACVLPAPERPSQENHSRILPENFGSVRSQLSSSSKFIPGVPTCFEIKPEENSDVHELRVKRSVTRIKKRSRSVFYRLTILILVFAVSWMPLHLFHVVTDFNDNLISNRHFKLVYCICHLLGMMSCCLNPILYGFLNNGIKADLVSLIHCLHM

T3: Y2 receptor (UniProt P49146 1-381, limits assumed)
T3 sequence (looked up): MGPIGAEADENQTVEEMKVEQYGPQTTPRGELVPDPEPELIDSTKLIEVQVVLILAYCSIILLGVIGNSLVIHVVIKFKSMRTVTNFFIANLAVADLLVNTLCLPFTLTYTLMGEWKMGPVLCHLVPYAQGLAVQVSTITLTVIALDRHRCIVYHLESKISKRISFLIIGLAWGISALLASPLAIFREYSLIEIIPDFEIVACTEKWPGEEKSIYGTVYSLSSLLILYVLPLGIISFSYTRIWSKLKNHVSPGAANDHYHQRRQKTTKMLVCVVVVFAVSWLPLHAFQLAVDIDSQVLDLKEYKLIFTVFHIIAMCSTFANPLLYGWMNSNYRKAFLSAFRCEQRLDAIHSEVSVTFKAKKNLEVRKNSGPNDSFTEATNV

T4: Y1 receptor (UniProt P25929 1-384, limits assumed)
T4 sequence (looked up): T1 sequence (P25929 1-384)

T5: human Y5 receptor (human, UniProt Q15761 1-445)
T5 sequence (looked up): T2 sequence (Q15761 1-445)


Legend:
Y1 receptor [1] = biological target: T1, Y1 receptor; assay: Assay (II) Y1 receptor ACTOne potency assay; format: cell-based
Source text: ACTOne™ is an easily scaleable cAMP biosensor HTS platform for measurement of Gs and Gi coupled 7™ receptor signalling from BD Biosciences (San Jose, Calif.). The cells express a biosensor developed around a modified rat olfactory cyclic nucleotide gated (CNG) calcium channel—a fairly non-discriminatory ion channel that responds to cAMP and cGMP. The CNG has been engineered to be cAMP selective and thus function as a cAMP responsive biosensor that signals through calcium or membrane potential responsive dyes.

human Y5 receptor [2] = biological target: T2, human Y5 receptor; assay: Assay (III) Y5 receptor IPOne potency assay; format: cell-based
Y2 receptor = biological target: T3, Y2 receptor; assay: cell-based or functional assay
Y1 receptor [3] = biological target: T4, Y1 receptor; assay: cell-based or functional assay
human Y5 receptor [4] = biological target: T5, human Y5 receptor; assay: cell-based or functional assay

Molecule	EC50 (Y1 receptor [1]) [nM]	Receptor potency Y1/Y2 ratio (Y1 receptor [1]; ratio of Y1 (Assay II) to Y2 (Assay I) receptor potency)	EC50 (human Y5 receptor [2]) [nM]	Receptor potency Y5/Y2 ratio (human Y5 receptor [2]; ratio of Y5 (Assay III) to Y2 (Assay I) receptor potency)	Receptor potency Y2 (Assay (I), ACTOne) (Y2 receptor) [nM]	Receptor potency Y1 (Assay (II), ACTOne) (Y1 receptor [3]) [nM]	Receptor potency Y5 (Assay (III), IPOne) (human Y5 receptor [4]) [nM]
CC[C@H](C)[C@H](N)C(=O)N[C@@H](CCCNC(=N)N)C(=O)N1CCC[C@H]1C(=O)N[C@@H](CCC(=O)O)C(=O)N[C@@H](C)C(=O)N1CCC[C@H]1C(=O)NCC(=O)N[C@@H](CCC(=O)O)C(=O)N[C@@H](CC(=O)O)C(=O)N[C@@H](C)C(=O)N[C@@H](CO)C(=O)N1CCC[C@H]1C(=O)N[C@@H](CCC(=O)O)C(=O)N[C@@H](CCC(=O)O)C(=O)N[C@@H](CC(C)C)C(=O)N[C@@H](CCC(=O)O)C(=O)N[C@@H](CCCNC(=N)N)C(=O)N[C@@H](Cc1ccc(O)cc1)C(=O)N[C@@H](Cc1ccc(O)cc1)C(=O)N[C@@H](C)C(=O)N[C@@H](CO)C(=O)N[C@@H](CC(C)C)C(=O)N[C@@H](CCCNC(=N)N)C(=O)N[C@@H](Cc1c[nH]cn1)C(=O)N[C@@H](Cc1ccc(O)cc1)C(=O)N[C@@H](CC(C)C)C(=O)N[C@@H](CCC(N)=O)C(=O)N[C@@H](CCCCNC(=O)COCCOCCNC(=O)COCCOCCNC(=O)CC[C@H](NC(=O)CCCCCCCCCCCCCCCCC(=O)O)C(=O)O)C(=O)N[C@H](C(=O)N[C@H](C(=O)N[C@@H](CCCNC(=N)N)C(=O)N[C@@H](CCC(N)=O)C(=O)N[C@@H](CCCNC(=N)N)C(=O)N[C@@H](Cc1ccc(O)cc1)C(N)=O)[C@@H](C)O)C(C)C [SEQ ID NO: 39, N-epsilon30[2-(2-{2-[2-(2-{2-[(S)-4-Carboxy-4-(17-carboxyheptadecanoylamino)butyrylamino]ethoxy}ethoxy)acetylamino]ethoxy}ethoxy)acetyl][Arg4,Glu18,Gln29,Lys30]hPYY(3-36)]	≥ 1000	>3.6	≥ 1000	>3.6			
IRPEAPGEDASPEELERYYASLRHYLQK([AEEA-AEEA-γGlu-C18 diacid])VTRQRY-NH2					274	≥ 1000	≥ 1000
